Converted amounts (≈) assume the structure as drawn. Blank lines part the entries; values can stand above or below the compound they belong to. The source made the active and inactive calls. No cut-off for these calls is given here.
What was measured:
HCT-116 [1] = assay: Cytotoxicity against human HCT-116 cells assessed as inhibition of cell growth at 20 uM incubated for 48 hrs by SRB assay relative to control; type: functional
MCF7 [2] = assay: Cytotoxicity against human MCF7 cells assessed as inhibition of cell growth at 20 uM incubated for 48 hrs by SRB assay relative to control; type: functional
MCF7 [3] = assay: Anticancer activity against human MCF7 cells assessed as effect on cell viability by SRB assay; type: functional, cell-based
Raji = assay: Anticancer activity against human Raji cells; type: functional, cell-based
MCF7 [4] = assay: Anticancer activity against human MCF7 cells; type: functional, cell-based
Jurkat = assay: Anticancer activity against human Jurkat cells; type: functional, cell-based
DU-145 = assay: Anticancer activity against human DU-145 cells; type: functional, cell-based
NCI-H226 = assay: Anticancer activity against human NCI-H226 cells; type: functional, cell-based
[5] = Anticancer activity against mouse NIH3T3 cells; type: toxicity, cell-based
HT-29 = assay: Anticancer activity against human HT-29 cells; type: functional, cell-based
SNB-19 = assay: Anticancer activity against human SNB-19 cells; type: functional, cell-based
[6] = Solubility of compound in water by UV absorbance based analysis; type: physicochemical
[7] = Solubility of compound in SIF by UV absorbance based analysis; type: physicochemical
[8] = Solubility of compound in SGF by UV absorbance based analysis; type: physicochemical
[9] = Cytotoxicity against human HEK293 cells assessed as inhibition of cell growth incubated for 48 hrs by SRB assay; type: toxicity, cell-based
[10] = Selectivity index, ratio of IC50 for HEK293 cells to IC50 for human MCF7 cells; type: toxicity; conditions: HEK293 cells versus MCF7 cells, read-out: Ratio IC50
[11] = Selectivity index, ratio of IC50 for HEK293 cells to IC50 for human HCT-116 cells; type: toxicity; conditions: HEK293 cells versus HCT-116 cells, read-out: Ratio IC50
HCT-116 [12] = assay: Cytotoxicity against human HCT-116 cells assessed as inhibition of cell growth incubated for 48 hrs by SRB assay; type: functional, cell-based; conditions: HCT-116, 48 h
MCF7 [13] = assay: Cytotoxicity against human MCF7 cells assessed as inhibition of cell growth incubated for 48 hrs by SRB assay; type: functional, cell-based; conditions: MCF7, 48 h

SMILES: C=C(C)[C@@H]1CCC(C)=C[C@H]1c1c(O)cc(CCCCC)c2c1OCN(C1CC1)C2
inhibition at 20 µM (HCT-116 [1]): 51.7%
inhibition at 20 µM (MCF7 [2]): 75.1%

SMILES: C=C(C)[C@@H]1CCC(C)=C[C@H]1c1c(O)cc(CCCCC)c2c1OCN(c1ccccc1)C2
inhibition at 20 µM (HCT-116 [1]): 4.09%
inhibition at 20 µM (MCF7 [2]): 5.3%

SMILES: Oc1cc2c(cc1O)CN(C(=S)NCCc1ccc(Cl)cc1)CCC2
Activity (MCF7 [3]): inactive

SMILES: C=C(C)[C@@H]1CCC(C)=C[C@H]1C1=C(O)C(=O)C(CCCCC)=CC1=O
IC50 (Raji): 449 nM
IC50 (MCF7 [4]): 449 nM
IC50 (Jurkat): 449 nM
IC50 (DU-145): 449 nM
IC50 (NCI-H226): 449 nM
IC50 [5]: 449 nM
IC50 (HT-29): 449 nM
IC50 (SNB-19): 449 nM

SMILES: C=C(C)[C@@H]1CCC(C)=C[C@H]1c1c2c(c(CCCCC)c3c1OCN(CCCC)C3)CN(CCCC)CO2
inhibition at 20 µM (HCT-116 [1]): 0%
inhibition at 20 µM (MCF7 [2]): 0%

SMILES: C=C(C)[C@@H]1CCC(C)=C[C@H]1c1c(O)cc(CCCCC)c2c1OCN(c1ccccc1F)C2
inhibition at 20 µM (HCT-116 [1]): 1.13%
inhibition at 20 µM (MCF7 [2]): 16.6%

SMILES: Cc1cc(C)c2nc(-c3ccccn3)cc(C(=O)Nc3ccc(S(=O)(=O)Nc4onc(C)c4C)cc3)c2c1
Activity (MCF7 [3]): inactive

IC50 (Raji): 449 nM
IC50 (MCF7 [4]): 449 nM
IC50 (Jurkat): 449 nM
IC50 (DU-145): 449 nM
IC50 (NCI-H226): 449 nM
IC50 (HT-29): 449 nM
IC50 (SNB-19): 449 nM
SMILES: C=C(C)[C@@H]1CCC(C)=C[C@H]1C1=C(OC)C(=O)C(CCCCC)=CC1=O
IC50 [5]: 449 nM

solubility [6]: 40 µg/mL (≈ 140 µM)
solubility [7]: 60 µg/mL (≈ 210 µM)
solubility [8]: 40 µg/mL (≈ 140 µM)
SMILES: O=C(/C=C/C=C/c1ccc2c(c1)OCO2)N1CCCCC1 [PIPERINE]

SMILES: C=C(C)[C@@H]1CCC(C)=C[C@H]1c1c(O)cc(CCCCC)c2c1OCN(CCCN1CCOCC1)C2
IC50 at 48 h [9]: 10600 nM
selectivity ratio [10]: 1.2
selectivity ratio [11]: 0.8
inhibition at 20 µM (HCT-116 [1]): 58.5%
IC50 (HCT-116 [12]): 12100 nM
IC50 (MCF7 [13]): 8800 nM
inhibition at 20 µM (MCF7 [2]): 76.8%

SMILES: COc1ccc(-c2oc3cc(OC)ccc3c2C(=O)c2ccc(C#N)cc2)cc1
Activity (MCF7 [3]): inactive

SMILES: C=C(C)[C@@H]1CCC(C)=C[C@H]1c1c(O)cc(CCCCC)c2c1OCN(CCC)C2
IC50 at 48 h [9]: 21800 nM
selectivity ratio [10]: 3.5
selectivity ratio [11]: 2.9
inhibition at 20 µM (HCT-116 [1]): 62.8%
IC50 (HCT-116 [12]): 7300 nM
IC50 (MCF7 [13]): 6100 nM
inhibition at 20 µM (MCF7 [2]): 82.4%

SMILES: C=C(C)[C@@H]1CCC(C)=C[C@H]1C1=C(O)C(=O)C(CCCCC)=C(C)C1=O
IC50 (Raji): 449 nM
IC50 (MCF7 [4]): 449 nM
IC50 (Jurkat): 449 nM
IC50 (DU-145): 449 nM
IC50 (NCI-H226): 449 nM
IC50 [5]: 449 nM
IC50 (HT-29): 449 nM
IC50 (SNB-19): 449 nM

Source: ChEMBL document CHEMBL6071200, “Discovery of Ring-Annulated Analogues of Cannabidiol as Potential Anticancer Agents: Synthesis and Biological Evaluation” (ACS Med Chem Lett, 2024)
